Measured values as given in patent publication US20040023972A1, “Use of substituted imidazo[1,2-a]-pyridin-, -pyrimidin-and-pyrazin-3-yl-amine derivatives in the preparation of medicaments for inhibiting NOS” (Gruenenthal GmbH, priority 2000, published 2004).

Target: T1, NO synthase (Rattus norvegicus, UniProt P29476)
T1 construct: the supernatant was then removed by decantation and frozen in portions at −80° C; from tissue; host or cells: rat cerebellum, 20,000 g supernatant of homogenate
Experiment: HTS-NOS assay (NOS assay): conversion of radioactive arginine, cation-exchanger filter plate
Assay type: biochemical
Details: for inhibition at 10 µM: read-out: HTS-NOS assay: % inhibition (10 μM)
Procedure: This assay enables the percentage inhibition of NO synthase by an active ingredient to be determined by measuring the NOS activity under the action of the active ingredient. NO synthase is mixed together with radioactively labelled arginine and the active ingredient under suitable conditions. After terminating the NO-forming reaction at a given time, the amount of unconverted arginine is determined directly or indirectly. A comparison of that amount with the amount of arginine that remains in a mixture of NOS and arginine without the addition of active ingredient and under otherwise identical conditions gives the % inhibition of NO synthase by the tested active ingredient. This assay can be carried out as follows:
(a) incubation of NO synthase with labelled arginine as substrate in a reaction vessel,
(b) separation of the labelled arginine from the labelled citrulline optionally formed as a product of the enzymatic reaction, at a time at which the citrulline concentration is increasing,
(c) measurement of the amount of arginine remaining in each case.
Separation is carried out over a filter plate membrane.
This NOS assay is suitable especially for “high throughput screening” (HTS) on microtitre plates (MTP).
In this HTS-NOS assay, radioactive arginine is used as substrate. The assay volume can be chosen in the range from 25 μl to 250 μl, according to the type of microtitre plate (MTP). Depending on the source of the enzyme used, co-factors and co-enzymes are added. Incubation of the batches on this microtitre plate (assay MTP) according to step (a) is carried out at room temperature and is for 5 to 60 minutes according to the enzyme activity used (units). At the end of the incubation (step (a)), the plate is placed into a cell harvester which is equipped with a MTP having a cation-exchanger membrane as the filter base (filter MTP). All batches of the assay MTP are transferred to the filter MTP and filtered off with suction over a cation-exchanger filter plate, a paper filter charged with phosphate groups. The filter MTP is then washed with buffer or water. By means of this procedure, the arginine substrate that remains is bound to the cation exchanger, while the enzymatically formed radioactive citrulline is washed out quantitatively. After drying the filter MTP and adding scintillation liquid, the bound arginine can be counted using a scintillation counter. An uninhibited NOS reaction is reflected in low radioactivity. An inhibited enzyme reaction means that the radioactive arginine has not been converted. This means that a high level of radioactivity is found on the filter.
Rat cerebella were used as the starting tissue. The animals were anaesthetized and sacrificed, the brain tissue, the cerebellum, was removed by dissection, 1 ml of enzyme preparation buffer was added per rat cerebellum (4° C.), and disintegration was carried out using a Polytron homogeniser for 1 minute at 6000 rpm, followed by centrifugation for 15 minutes at 4° C. and 20,000 g; the supernatant was then removed by decantation and frozen in portions at −80° C. (the precipitate was discarded).
96-well MTP having a well capacity of <250 μl were used.
Pipetting sequence: see Table 1.
When the pipetting operation was complete, a cover was placed on the MTP (assay MTP), and incubation was at 25° C. (room temperature (RT)) for from 5 to 60 minutes, according to the amount and activity of the enzyme used.
The contents of the assay MTP were then transferred with the aid of a 96-well cell harvester to a 96-well cation exchanger MTP (filter MTP) and filtered off with suction. This was followed by washing once with […] of H2O (from a bath).
The plate was then dried for 1 hour at 60° C. in a drying cabinet. The underside of the filter MTP was then accurately sealed from beneath with a “back seal”. 35 μl of scintillation fluid per well were then added by means of a pipette. The upper side of the plate was also sealed with a “top seal”. […]

SMILES | HTS-NOS assay: % inhibition (10 μM) [%] | inhibition at 10 µM [%]
Cc1cc(C)n2c(Nc3c(C)cccc3C)c(-c3ccccc3F)nc2c1 [Example 34] | 61 | 
Cc1cc(C)n2c(NC3CCCCC3)c(C)nc2c1 [Example 35, Cyclohexyl-(2,5,7-trimethyl-imidazo[1,2-a]-pyridin-3-yl)-amine] |  | 55
Cc1cc(C)n2c(NC(C)(C)CC(C)(C)C)c(-c3ccc[nH]3)nc2c1 [Example 36, [5,7-Dimethyl-2-(1H-pyrrol-2-yl)-imidazo-[1,2-a]pyridin-3-yl]-(1,1,3,3-tetramethyl-butyl)-amine] |  | 69
CCCCNc1c(C2CCCCC2)nc2cc(C)cc(C)n12 [Example 37, Butyl-(2-cyclohexyl-5,7-dimethyl-imidazo[1,2-a]pyridin-3-yl)-amine] |  | 58
Cc1cc(C)n2c(NC(C)(C)CC(C)(C)C)c(-c3ccccc3C)nc2c1 [Example 38, (5,7-Dimethyl-2-o-tolyl-imidazo[1,2-a]-pyridin-3-yl)-(1,1,3,3-tetramethyl-butyl)-amine] |  | 60
COc1cccc(-c2nc3cc(C)ccn3c2Nc2c(C)cccc2C)c1OC [Example 39, [2-(2,3-Dimethoxy-phenyl)-7-methyl-imidazo[1,2-a]pyridin-3-yl]-(2,6-dimethyl-phenyl)-amine] |  | 58
Cc1ccn2c(NC(C)(C)CC(C)(C)C)c(C)nc2c1 [Example 40, (2,7-Dimethyl-imidazo[1,2-a]pyridin-3-yl)-(1,1,3,3-tetramethyl-butyl)-amine] |  | 61
Cc1ccn2c(NC(C)(C)CC(C)(C)C)c(-c3ccc(C4OCCO4)o3)nc2c1 [Example 41, [2-(5-[1,3]Dioxolan-2-yl-furan-2-yl)-7-methyl-imidazo[1,2-a]pyridin-3-yl]-(1,1,3,3-tetramethyl-butyl)-amine] |  | 57
Cc1cc(C)n2c(Nc3c(C)cccc3C)c(-c3sccc3Br)nc2c1 [Example 42, [2-(3-Bromo-thiophen-2-yl)-5,7-dimethyl-imidazo[1,2-a]pyridin-3-yl]-(2,6-dimethyl-phenyl)-amine] |  | 55
Cc1ccn2c(Nc3c(C)cccc3C)c(-c3ccccc3F)nc2c1 [Example 43, (2,6-Dimethyl-phenyl)-[2-(2-fluoro-phenyl)-7-methyl-imidazo[1,2-a]pyridin-3-yl]-amine] |  | 71
Cc1cc(C)n2c(NC(C)(C)CC(C)(C)C)c(C3CCCCC3)nc2c1 [Example 44, (2-Cyclohexyl-5,7-dimethyl-imidazo[1,2-a]-pyridin-3-yl)-(1,1,3,3-tetramethyl-butyl)-amine] |  | 71
C#[N+]CCCCCCNc1c(-c2ccco2)nc2cc(C)cc(C)n12 [Example 45, [6-(2-Furan-2-yl-5,7-dimethyl-imidazo[1,2-a]pyridin-3-ylamino)-hexyl]-methylidyne-ammonium] | 54 | 
Cc1ccn2c(NC(C)(C)CC(C)(C)C)c(-c3ccccc3C)nc2c1 [Example 46, (7-Methyl-2-o-tolyl-imidazo[1,2-a]pyridin-3-yl)-(1,1,3,3-tetramethyl-butyl)-amine] |  | 59
Cc1ccn2c(Nc3c(C)cccc3C)c(-c3cccc(Cl)c3Cl)nc2c1 [Example 47, [2-(2,3-Dichloro-phenyl)-7-methyl-imidazo[1,2-a]pyridin-3-yl]-(2,6-dimethyl-phenyl)-amine] |  | 69
COc1cccc(-c2nc3cc(C)cc(C)n3c2Nc2c(C)cccc2C)c1OC [Example 48, [2-(2,3-Dimethoxy-phenyl)-5,7-dimethyl-imidazo[1,2-a]pyridin-3-yl]-(2,6-dimethyl-phenyl)-amine] |  | 68
CCCCNc1c(-c2cccc(OC)c2OC)nc2cc(C)cc(C)n12 [Example 49, Butyl-[2-(2,3-dimethoxy-phenyl)-5,7-dimethyl-imidazo[1,2-a]pyridin-3-yl]-amine] |  | 67

SMILES | HTS-NOS assay: % inhibition (10 μM) [%] | inhibition at 10 µM [%]
[C-]#[N+]CCCCCCNc1c(-c2ccc(C)cc2)nc2cc(C)ccn12 [Example 50, Methylidyne-[6-(7-methyl-2-p-tolyl-imidazo[1,2-a]pyridin-3-ylamino)-hexyl]-ammonium] | 78 | 
Cc1cc(C)n2c(NC(C)(C)C)c(-c3ccc([N+](=O)[O-])o3)nc2c1 [Example 51, Tert-butyl-[5,7-dimethyl-2-(5-nitro-furan-2-yl)-imidazo[1,2-a]pyridin-3-yl]-amine] |  | 59
CC(=O)OCc1ccc(-c2nc3cc(C)cc(C)n3c2NC2CCCCC2)o1 [Example 52, Acetic acid 5-(3-cyclohexylamino-5,7-dimethyl-imidazo[1,2-a]pyridin-2-yl)-furan-2-yl methyl ester] | 64 | 
COc1ccccc1-c1nc2cc(C)cc(C)n2c1NC(C)(C)CC(C)(C)C [Example 53, [2-(2-Methoxy-phenyl)-5,7-dimethyl-imidazo[1,2-a]pyridin-3-yl]-(1,1,3,3-tetramethyl-butyl)-amine] |  | 61
COc1ccc(-c2nc3cc(C)ccn3c2Nc2c(C)cccc2C)cc1OC [Example 54, [2-(3,4-Dimethoxy-phenyl)-7-methyl-imidazo[1,2-a]pyridin-3-yl]-(2,6-dimethyl-phenyl)-amine] |  | 64
CCCCNc1c(-c2cccc(O)c2)nc2cc(C)ccn12 [Example 55, 3-(3-Butylamino-7-methyl-imidazo[1,2-a]-pyridin-2-yl)-phenol] |  | 63
Cc1ccn2c(NC(C)(C)CC(C)(C)C)c(-c3cc4ccccc4o3)nc2c1 [Example 56, (2-Benzofuran-2-yl-7-methyl-imidazo[1,2-a]pyridin-3-yl)-(1,1,3,3-tetramethyl-butyl)-amine] |  | 60
Cc1cc(C)n2c(Nc3c(C)cccc3C)c(-c3cc4ccccc4o3)nc2c1 [Example 57, (2-Benzofuran-2-yl-5,7-dimethyl-imidazo[1,2-a]pyridin-3-yl)-(2,6-dimethyl-phenyl)-amine] |  | 57
CC(=O)OCc1ccc(-c2nc3cc(C)ccn3c2NC2CCCCC2)o1 [Example 58, Acetic acid 5-(3-cyclohexylamino-7-methyl-imidazo[1,2-a]pyridin-2-yl)-furan-2-yl methyl ester] | 64 | 
[C-]#[N+]CCCCCCNc1c(-c2cccnc2)nc2cc(C)cc(C)n12 [Example 59, [6-(5,7-Dimethyl-2-pyridin-3-yl-imidazo[1,2-a]pyridin-3-ylamino)-hexyl]-methylidyne-ammonium] | 57 | 
CCCCNc1c(-c2ccccc2OC)nc2cc(C)ccn12 [Example 60, Butyl-[2-(2-methoxy-phenyl)-7-methyl-imidazo[1,2-a]pyridin-3-yl]-amine] |  | 52
[C-]#[N+]CCCCCCNc1c(-c2ccccc2OC)nc2cc(C)cc(C)n12 [Example 61, {6-[2-(2-Methoxy-phenyl)-5,7-dimethyl-imidazo[1,2-a]pyridin-3-ylamino]-hexyl}-methylidyne-ammonium] | 73 | 
Cc1cc(C)n2c(NC(C)(C)CC(C)(C)C)c(-c3ccc(CO)o3)nc2c1 [Example 62, {5-[5,7-Dimethyl-3-(1,1,3,3-tetramethyl-butylamino)-imidazo[1,2-a]pyridin-2-yl]-furan-2-yl}-methanol] |  | 55
Cc1ccn2c(NC(C)(C)CC(C)(C)C)c(-c3cccc4ccccc34)nc2c1 [Example 63, (7-Methyl-2-naphthalen-1-yl-imidazo[1,2-a]-pyridin-3-yl)-(1,1,3,3-tetramethyl-butyl)-amine] |  | 52
Cc1ccn2c(NC(C)(C)C)c(-c3ccc(CO)o3)nc2c1 [Example 64, [5-(3-Tert-butylamino-7-methyl-imidazo[1,2-a]pyridin-2-yl)-furan-2-yl]-methanol] |  | 52
